Test results from article PMC9549282, “Transcriptome analysis of megalurothrips usitatus (Bagnall) identifies olfactory genes with ligands binding characteristics of MusiOBP1 and MusiCSP1” (Frontiers in Physiology, 2022).

Legend:
MusiCSP1 [1] = target: T1, MusiCSP1; test: 1-NPN fluorescence displacement; assay type: binding, Megalurothrips usitatus; details: 2 μM protein, 2 μM 1-NPN; ligand 2-16 μM; competitive with 1-NPN
T1 construct: pET32a(+) BamHI/HindIII fusion (about 31 kDa) in E. coli BL21(DE3), Ni-NTA, His-tag fusion cut off with enterokinase
Description: 1-NPN fluorescence displacement on MusiCSP1

MusiCSP1 [2] = target: T1, MusiCSP1; test: fluorescent probe titration, Scatchard; assay type: binding, Megalurothrips usitatus; details: excitation 337 nm; labelled compound (fluorescent probe)

| SMILES | Ki (MusiCSP1 [1]) [µM] | Kd (MusiCSP1 [2]) [µM] |
| --- | --- | --- |
| CC(C)=CCC/C(C)=C\CO [Nerol] | 80 |  |
| Cc1occc(=O)c1O [3-hydroxy-2-Methyl-4-pvrone] | 25.4 |  |
| Cc1ccccc1C [O-Xylene] | 31 |  |
| c1ccc(Nc2cccc3ccccc23)cc1 [1-NPN] |  | 8.36 |
| C=C1CC/C=C(\C)CC[C@@H]2[C@@H]1CC2(C)C [β-Caryophyllene] | 121 |  |
| CC(C)=CCCC(C)CCO (stereo not drawn) [β-citronellol] | 38.6 |  |
| O=CCCc1ccccc1 [3-Benzene propanal] | 38.6 |  |
| COc1ccc(C=O)cc1 [P-Anisaldehyde] | 42.8 |  |
| CC(C)=CCC/C(C)=C/CO [Geraniol] | 36.5 |  |
| CCCCCC(=O)CC [3-Octanone] | 59.6 |  |
